Data reported in patent US20160318844A1, “PROSTACYCLIN COMPOUNDS, COMPOSITIONS AND METHODS OF USE THEREOF” (Insmed Incorporated, priority 2015, published 2016).

Columns and labels:
[1] = Treprostinil alkyl ester conversion to treprostinil in dog lung tissue homogenate; assay type: in vitro ADME; details: 37° C.
Experimental: (§1) Here, data were calculated based on fit of exponential increase to the maximum (experiments performed in duplicate). The results of this study are provided below in Table 2A and FIG. 37. […] In this experiment, treprostinil alkyl esters were incubated for 4 hours at a final concentration of 200 nM in 1 mL of tissue homogenate prepared in water and normalized to 10 mg/mL of protein.
(§2) C12-TR was incubated for 4 hours at a final concentration of 200 nM in 1 mL of tissue homogenate prepared in water and normalized to 10 mg/mL of protein. Both FIG. 37 experiments (eft and right graphs) were performed in duplicate and the lines represent nonlinear exponential regression assuming 1 phase decay. Table 2A. Rate of treprostinil alkyl ester conversion in the presence of rat, dog or monkey lung tissue homogenate.

[2] = Treprostinil alkyl ester conversion to treprostinil in monkey lung tissue homogenate; assay type: in vitro ADME; details: 37° C.
Experimental: as §1, §2

[3] = Treprostinil alkyl ester conversion to treprostinil in rat lung tissue homogenate; assay type: in vitro ADME; details: 37° C., 200 nM, 10 mg/mL of protein
Experimental: as §1, §2

[4] = test system: NR8383 cells; assay: NR8383 cell proliferation assay; assay type: cell-based, rat; details: for Effect on cell proliferation, NR8383 Cells: detectable cell inhibition: Table 9, unformulated alkyl esters, (0.195 μM-25 μM), 72 hour incubation
Experimental: Rat alveolar NR8383 cells were harvested when the monolayer was 50-90% confluent (use passage 5-11). Because the NR8383 cells include both adherent and non-adherent cells, media was transferred to a 50 mL Falcon tube. To obtain the cells remaining in the flask, 2 mL of plain media was added, and the remaining cells were scraped out of the 75 cm^2 flask with a cell scraper and added to the 50 mL tube. […] SH30071.03)+1×Pen-Strep (Life Technologies, cat #: 15410-122)). Cell number was determined using a hemacytometer. […] Measurements and calculations were made as described above for the CHO-K1 cells. Rat alveolar NR8383 cells were challenged with the same treprostinil derivative compositions: […]

[5] = physchem; details: organic solvent or mixture, thermodynamic from solid
Experimental: Selected treprostinil derivatives were evaluated for the use in a metered dose inhaler (MDI).
5 mg of each treprostinil compound was added in a glass bottle. Specific amount of ethanol was added by weight. An MDI valve was crimped to each bottle, and HFA propellant added through the valve to the total volume of 5 mL. Compounds were allowed to dissolve for 24 hours at room temperature. The formulations were assessed visually for solubility. The goal was to estimate the minimum ethanol concentration required to solubilize each compound in propellant.
Soluble samples presented as clear and colorless solutions. […] Non-soluble samples had white precipitate or crystals formed. Ethanol was added as a solubility aid.

[6] = test system: beagle dogs; assay: Clinical signs in dogs after inhalation; details: targeted dose of 18 μg/kg
Experimental: Dosimetry was performed in propofol-anesthetized dogs in which nebulized drugs were introduced into a mixing chamber interposed on the inspiratory limb of a canine respirator. Technical trials were performed before each experiment to measure the concentration of drug (μg/L) delivered for each breath. The inhaled drug dose (μg/kg) was calculated using the formula: Inhaled Drug Dose (μg/kg)=Drug Conc. (μg/L)×Minute Ventilation (L/min.)×Time (min.)/Body Weight (kg). […] Clinical signs were monitored over this 72 hr. period.
Dosimetry was performed in propofol-anesthetized, artificially ventilated dogs in which nebulized drugs were introduced into a mixing chamber interposed on the inspiratory limb of the respirator. Technical trials were performed before each experiment measuring the concentration of drug (μg/L) per breath, minute ventilation and time required to achieve a targeted pulmonary dose. […] Clinical signs (cough, rapid shallow breathing, emesis and pale gums) were also monitored.

| SMILES | Rate of treprostinil alkyl ester conversion [1] | Rate of treprostinil alkyl ester conversion [2] | Rate of treprostinil alkyl ester conversion [3] | Effect on cell proliferation, NR8383 Cells: detectable cell inhibition [4] | inhibition of NR8383 cell proliferation ([4]; unformulated alkyl esters, highest concentration, 72 hour) | solubility at 24 h ([5]; Solubility in HFA-134a with added ethanol) [µg/mL] | solubility at 24 h ([5]; Solubility in HFA-227 with added ethanol) [µg/mL] | adverse clinical signs [6] |
| --- | --- | --- | --- | --- | --- | --- | --- | --- |
| CCCCCCCCOC(=O)COc1cccc2c1C[C@H]1C[C@@H](O)[C@H](CC[C@@H](O)CCCCC)[C@H]1C2 [Compound C8-TR, treprostinil octyl ester] | 49.8 nmOL/h * g of protein | 17.3 nmOL/h * g of protein | 32.5 nmOL/h * g of protein | Some detectable cell | showed some inhibition of cell proliferation |  |  |  |
| CCCCCCCCCCCCOC(=O)COc1cccc2c1C[C@H]1C[C@@H](O)[C@H](CC[C@@H](O)CCCCC)[C@H]1C2 [Compound C12-TR, dodecyl-treprostinil] | 2.2 nmOL/h * g of protein | 0.6 nmOL/h * g of protein | 1.1 nmOL/h * g of protein | No detectable cell inhibition |  | > 1000 | > 1000 | Adverse clinical signs were seen |
